Results published in US20040127447A1, “Augmentation of K+ channel expression using adenoviral vectors” (priority 2002, published 2004).
Read-outs that look alike come from different tables or passages of the source. Ends that are not written are not given here.

How the values were obtained:
[1] = system: human ductus arteriosus (DA) rings; assay: Human DA ring tension; settings: for constriction of fresh human DA rings: hypoxia, 4-AP 1-10 mM, IBTx 200 nM
Description: DAs excised from 26 neonates with hypoplastic left heart syndrome during the Norwood procedure (age 9±2 days, 12 female, arterial PO2˜40 mmHg) were usedDAs were transported in iced saline, maintained in hypoxia and used within 1 hour. Ring tension was recorded as previously described in Michelakis E, et al. (2000) Lancet 356:134-7.
Optimal passive ring tension was determined to be 1 g, as defined by the maximal constriction to 80 mM KCl. Tension was recorded using a force transducer connected to a MacLab A-D convertor (AD Instruments, Toronto, Canada). Tension was recorded from rings bubbled with 95% N2 and 5% CO2 in Krebs' solution, to mimic in utero conditions (PO2 40 mmHg, pH 7.4, pCO2 40-50 mmHg). Normoxia was created by bubbling with 20%O2 and 5% CO2 (balance N2) resulting in PO2 150 mmHg, pH 7.4, and PCO2 40 mmHg. Optimal resting tension was previously found to be 1000 mg, as described in Michelakis E, et al. (2000) Lancet 356:134-7. To exclude the contribution of several endothelial-derived vasoactive substances, the Krebs' solution also contained meclofenamate 17 μM to inhibit PGHS and L-N^G-nitroarginine-methylester (L-NAME) 10^−5 M to inhibit NOS.

[2] = system: DASMC K+ current (IK); assay: Whole-cell patch clamp of human DASMCs; type: cell-based; settings: for IK at potentials close to the resting EM (-30 mV) / whole cell K+ current (IK): fresh human DASMC
Description: (§1) Current and voltage clamp technique, SMC isolation and pipette solutions were performed as previously described in Michelakis E D, et al. (2002) Circ Res. 90:1307-15. The response to O2, ETC inhibitors and the membrane permeable H2O2 analog, t-butyl hydrogen peroxide, were compared between DASMCs enzymatically dispersed from fresh DAs versus those maintained in tissue culture for 72 hours (either under normoxic or hypoxic conditions).
Cells were voltage clamped at a holding potential of −70 mV and currents were evoked by 10 mV steps to +50 mV using test pulses of 200 ms duration. Data were recorded and analyzed using pCLAMP 6.02 software (Axon Instruments, Foster City, Calif.). Current density was calculated (pA/pF) and plotted against voltage.

[3] = system: DASMC EM; assay: DASMC membrane potential EM (current clamp, DiBAC4(3)); type: cell-based, human
Description: as §1
DASMC EM was measured both using patch clamp technique in current clamp mode and noninvasively with DiBAC4(3) (20 μM, bis-barbituric acid oxonol), a potentiometric dye that increases green fluorescence upon depolarization. DiBAC4 loaded cells or intact DA rings were stimulated with multi-photon excitation at 740 nm and emission was measured in the green range, 505-530 nm. DASMCs were studied after culture in normoxic or hypoxic environment for 4-5 days. The acute change in EM that occurred in response to 4-AP (10 mM), KCL (80 mM) or a switch in PO2 from 40 to 120 mmHg was measured.

[4] = system: PASMC K+ current (IK); assay: Whole-cell patch clamp of PASMCs; type: cell-based; settings: normoxic-saline rat PASMCs
Source text: Fresh PASMC's were isolated from fourth division PA's by enzymatic dispersion and studied using conventional whole-cell patch-clamp technique at room temperature, as previously described in Archer S L, et al. (1998) J. Clin. Invest. 101:2319-30, and Michelakis E D, et al. (2001) Am. J. Physiol. Lung Cell Mol. Physiol. 280:L1138-47. All cells were voltage-clamped at a holding potential of −70 mV. Currents were evoked in stepwise fashion from −70 mV to +70 mV with test pulses of 200 ms. Whole-cell currents were divided by the capacitance of the cell, yielding current density. The pipette solution (intracellular) contained (mmol/L): KCl 134, KH2PO4 1.2, MgCl2 1.0, HEPES 5, pH 7.30, Na2ATP 5 and EGTA 5.

[5] = system: DASMC mitochondria; assay: Mitochondrial membrane potential in DASMCs (JC-1, TMRM); type: cell-based, human
Description: Mitochondrial membrane potential (Δψm) was measured using two independent and well-validated probes JC-1 and TMRM (tetramethyl rhodamine methyl ester), as previously described in Michelakis E D, et al. (2002) Circ Res. 90:1307-15.
First-passage cultured DASMC were loaded with either JC-1 (1 μM) or TMRM (20 nM) for 30 minutes (37° C.) at 37 C. Confocal images were obtained within 30 minutes using a Zeiss Axiovert 100M inverted microscope equipped with an Apochromat 40×1.2 water-corrected objective. Settings (amplifier gain, pin hole size and filter set) were kept constant between experiments.
[…]. JC-1 fluoresces in the red spectra in hyperpolarized mitochondria (high Δψm) and in the green spectra in depolarized mitochondria (low Δψm). KCl (40 mM) was used to clamp the plasmalemmal membrane potential in some experiments. […] TMRM binds the inner and outer aspects of the inner mitochondrial membrane and accumulates in the mitochondria at greater quantities than predicted by the Nernst equation. TMRM fluorescence red in proportion to ψm. A 488 nm Argon laser was used for excitation and the resultant red/green fluorescence was quantified in channels 1 and 2 using LP 560 nm and BP 505-530 nm filters, respectively. 8-bit images were collected with a laser loiter time of 4.48 μs/pixel. Pinholes yielded optical slices of 1 μm. Results are expressed as the ratio of red/green channel fluorescence.

[6] = system: human DA rings; assay: H2O2 production in DA rings (AmplexRed, lucigenin chemiluminescence)
Description: DA rings were loaded with lucigenin 5 μM and placed in a 2 ml heated cuvette at 37° C. Counts were recorded using a Packard 1900CA Liquid Scintillation Analyzer.
H2O2, was measured using a specific, fluorometric AmplexRed® assay, as previously described in Michelakis E D, et al. (2002 ) Circ Res. 90:1307-15. An independent, specific measure of the candidate redox mediator, H2O2, was made using the one-step, fluorometric Amplex Red (Molecular Probes, Eugene, Oreg.) assay. The assay detects H2O2 using 10-acetyl-3,7-dihydroxyphenoxazine (Amplex Red reagent) a stable probe that, in the presence of horseradish peroxidase (HRP), reacts with H2O2 with a 1:1 stoichiometry to produce the highly fluorescent substance, resorufin. The assay was calibrated (FIG. 15) and found to be linear over the range of 0.25 to 5.0 μM. Freshly harvested DA rings were placed in a normoxic or a hypoxic solution containing AmplexRed and, after 20 minutes, fluorescence was recorded (excitation 530 nm, emission 590 nm), see FIG. 15.

Molecule: antimycin
- phenylephrine constriction ([1]; DA rings): unaltered
- relaxation of the O2-preconstricted DA ([1]; normoxic DA rings): relax

Molecule: iberiotoxin (QFTDVDCSVSKECWSVCKDLFGVDRGKCMGKKCRCYQ; ends and bridges not checked; cysteine pairing not given here; UniProt P24663 1-37, looked up) [IBTx]
- IK at potentials close to the resting EM (-30 mV) [2]: minimal inhibition
- whole cell K+ current (IK) [2]: significantly inhibit
- constriction of fresh human DA rings [1]: does not

Molecule: CC(C)(C)OO [t-butyl-H2O2, t-butyl hydrogen peroxide]
- IK in freshly dispersed DASMCs ([2]; voltage clamp): inhibits
- EM of fresh hypoxic DASMCs ([3]; current clamp): depolarizes
- depolarizing response in chronically normoxic DASMCs ([3]; current clamp): lost

Molecule: Nc1ccncc1 [4-AP, 4-aminopyridine]
- IK at potentials close to the resting EM (-30 mV) [2]: significant decreases
- whole cell K+ current (IK) [2]: significantly inhibit
- IK of DASMC from chronically normoxic DAs ([2]; returned to hypoxic conditions): unresponsive
- IK in N-S PASMCs [4]: reversible inhibition
- constriction of fresh human DA rings [1]: significantly constricts
- acute depolarization of ionically remodeled DASMCs ([3]; chronically normoxic, returned acutely to hypoxia, 4-AP 10 mM): loose their ability to depolarize

Molecule: C=C(C)[C@H]1Cc2c(ccc3c2O[C@@H]2COc4cc(OC)c(OC)cc4[C@@H]2C3=O)O1 [rotenone]
- IK acutely suppressed by O2 [2]: precisely restoring the current
- IK of DASMC from chronically normoxic DAs [2]: unresponsive
- ψm in DASMCs [5]: depolarizes
- H2O2 production [6]: decreases
- phenylephrine constriction [1]: unaltered
- relaxation of chronically normoxic DA rings [1]: no longer causes relaxation
- relaxation of the O2-preconstricted DA [1]: relax
